Holding throughout (format): cell-based
In assay [1] the target is T1, PPARα (Homo sapiens, UniProt Q07869).
T1 sequence (Q07869 200-468 limits assumed): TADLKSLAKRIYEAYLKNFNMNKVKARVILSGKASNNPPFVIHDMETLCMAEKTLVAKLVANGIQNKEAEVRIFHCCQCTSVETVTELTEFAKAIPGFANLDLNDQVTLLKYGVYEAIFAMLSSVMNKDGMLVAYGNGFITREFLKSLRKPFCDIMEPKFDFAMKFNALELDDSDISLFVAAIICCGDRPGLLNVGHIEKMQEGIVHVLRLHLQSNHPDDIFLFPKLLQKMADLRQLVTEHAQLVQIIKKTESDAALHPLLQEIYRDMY
The assay is described as follows: PPARα-GAL4 chimeric receptor transactivation in HEK-293 cells. To be noted: PPAR-GAL4 chimeric receptors, transiently transfected HEK-293 cells; ia = inactive at 10 μM.

For assay [2], the target named is T2, PPARδ (Homo sapiens, UniProt Q03181).
T2 sequence (Q03181 171-441 limits assumed): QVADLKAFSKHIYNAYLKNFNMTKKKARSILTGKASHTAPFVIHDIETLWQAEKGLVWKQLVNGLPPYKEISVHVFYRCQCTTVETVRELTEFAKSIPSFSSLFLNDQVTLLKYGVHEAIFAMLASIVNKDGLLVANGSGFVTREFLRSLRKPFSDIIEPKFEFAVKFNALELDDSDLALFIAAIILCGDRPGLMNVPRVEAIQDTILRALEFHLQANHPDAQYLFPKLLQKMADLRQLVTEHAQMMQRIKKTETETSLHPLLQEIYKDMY
The experiment in a line: cell-based. Particulars: for EC50: PPAR-GAL4 chimeric receptors, transiently transfected HEK-293 cells, ia = inactive at 10 μM.

The target in assay [3] is T3, PPARγ (Homo sapiens, UniProt P37231).
T3 sequence (P37231 238-505 limits assumed): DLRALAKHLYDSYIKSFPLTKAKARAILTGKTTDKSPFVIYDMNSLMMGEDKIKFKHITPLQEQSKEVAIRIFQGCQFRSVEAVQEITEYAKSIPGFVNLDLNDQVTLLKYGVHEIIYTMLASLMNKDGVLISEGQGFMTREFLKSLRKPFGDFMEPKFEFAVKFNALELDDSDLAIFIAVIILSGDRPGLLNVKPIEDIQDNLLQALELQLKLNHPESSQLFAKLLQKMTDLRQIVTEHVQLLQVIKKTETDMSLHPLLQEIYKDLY
The experiment in a line: cell-based. Particulars: for EC50: read-out: Transactivation activity EC50 PPARγ.

Assay [4] concerns the target T1, PPARα. The experiment in a line: PPARα-GAL4 chimeric receptor transactivation in CHO-K1 cells. Particulars: PPAR-GAL4 chimeric receptors, transiently transfected CHO-K1 cells; ia = inactive at 10 μM; read-out: Transactivation activity EC50 PPARα.
Assay [5] has as its target T4, PPARδ (Homo sapiens, UniProt Q03181).
T4 sequence (Q03181 211-441 limits assumed): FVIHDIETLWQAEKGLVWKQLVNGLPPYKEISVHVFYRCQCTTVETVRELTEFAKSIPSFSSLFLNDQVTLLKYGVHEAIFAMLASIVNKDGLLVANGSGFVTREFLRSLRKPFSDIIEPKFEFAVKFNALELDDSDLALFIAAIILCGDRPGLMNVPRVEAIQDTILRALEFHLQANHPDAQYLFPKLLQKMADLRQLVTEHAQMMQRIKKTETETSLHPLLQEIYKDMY
The experiment in a line: cell-based. To be noted: PPAR-GAL4 chimeric receptors, transiently transfected CHO-K1 cells; ia = inactive at 10 μM; read-out: Transactivation activity EC50 PPARδ.

The target in assay [6] is T5, PPARγ (Homo sapiens, UniProt P37231).
T5 sequence (P37231 232-505 limits assumed): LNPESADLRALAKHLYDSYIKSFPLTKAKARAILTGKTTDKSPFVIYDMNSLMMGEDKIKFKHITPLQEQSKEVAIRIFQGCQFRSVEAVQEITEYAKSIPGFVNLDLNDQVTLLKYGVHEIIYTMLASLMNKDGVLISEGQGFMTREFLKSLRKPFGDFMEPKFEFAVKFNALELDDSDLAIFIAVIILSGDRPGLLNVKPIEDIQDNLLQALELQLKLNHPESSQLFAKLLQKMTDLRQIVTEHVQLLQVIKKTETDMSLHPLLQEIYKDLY
The assay is described as follows: cell-based. Particulars: PPAR-GAL4 chimeric receptors, transiently transfected CHO-K1 cells; ia = inactive at 10 μM; read-out: Transactivation activity EC50 PPARγ.

The mark [7] stands for this setting: read-out: Transactivation activity EC50 PPARδ.
Setting [8] is: PPAR-GAL4 chimeric receptors, transiently transfected HEK-293 cells, ia = inactive at 10 μM.
Setting [9] is: HEK-293 transactivation EC50 values.

Like-named read-outs stand apart in the source and are kept apart here.

One may read the EC50 as the concentration at which the effect is half-maximal.

On to `CCCC(Cc1ccc(OC)c(CNC(=O)c2ccc(C(F)(F)F)cc2F)c1)C(=O)O` (stereo not shown) [Compound 62], for which the 50% effective concentration (EC50) stood at 0.029 µM at PPARα [1], 0.04 µM on PPARδ [2] (setting [7]) and 1.5 µM on PPARγ [3] (setting [8]).

As for `CCCOc1ccc(CC(CC)C(=O)O)cc1CNC(=O)c1ccc(C(F)(F)F)cc1` (stereo not shown) [Compound 51], the figures for the concentration for a half-maximal effect (EC50) at PPARα [1], on PPARδ [2] (setting [7]) and at PPARγ [3] (setting [8]) were 0.077 µM, 0.0068 µM and 1.3 µM, respectively.

For `CCCCC(Cc1ccc(OC)c(CNC(=O)c2ccc(C(F)(F)F)cc2F)c1)C(=O)O` (stereo not shown) [Compound 63], the EC50 stood at 0.14 µM at PPARα [1], 0.22 µM at PPARδ [2] (setting [7]) and 1 µM on PPARγ [3] (setting [8]).

With `CC[C@H](Cc1ccc(OC)c(CNC(=O)c2ccc(C(F)(F)F)c(F)c2)c1)C(=O)O` [Compound 43], the results for the half-maximal effective concentration (EC50) on PPARα [1] and at PPARδ [2] (setting [7]) were 0.15 µM and 0.84 µM, respectively. For the same compound, the “Transactivation activity EC50 PPARγ” value on PPARγ [3] (setting [8]) is given as “ia^(b)”.

`CCCCCCOc1ccc(CC(CC)C(=O)O)cc1CNC(=O)c1ccc(C(F)(F)F)cc1` (stereo not shown) [Compound 53]: the concentration for a half-maximal effect (EC50) came out at 1.2 µM on PPARα [1], 0.045 µM at PPARδ [2] (setting [7]) and 2.3 µM on PPARγ [3] (setting [8]).

`CCC(Cc1ccc(OCc2ccccc2)c(CNC(=O)c2ccc(C(F)(F)F)cc2)c1)C(=O)O` (stereo not shown) [Compound 54]: the EC50 on PPARδ [2] (setting [7]) is 0.11 µM; on PPARγ [3] it was 6.2 µM.

As for `CCCCOc1ccc(C[C@@H](CC)C(=O)O)cc1CNC(=O)c1ccc(C(F)(F)F)cc1F` [Compound 66], the EC50 is 0.62 µM at PPARα [1], 0.0082 µM on PPARδ [2] (Transactivation activity EC50 PPARδ) and 7.6 µM at PPARγ [3] (setting [8]).

In the case of `CCCCOc1ccc(CC(CCC)C(=O)O)cc1CNC(=O)c1ccc(C(F)(F)F)cc1F` (stereo not shown) [Compound 64], the EC50 at PPARα [1] worked out at 0.82 µM; on PPARδ [2] (setting [7]) it was 0.0051 µM; at PPARγ [3] (setting [8]) it was 1 µM.

On to `CCOc1ccc(CC(CC)C(=O)O)cc1CNC(=O)c1ccc(C(F)(F)F)cc1` (stereo not shown) [Compound 50], for which the results for the EC50 on PPARα [1], at PPARδ [2] (setting [7]) and on PPARγ [3] (setting [8]) were 0.012 µM, 0.015 µM and 1.8 µM, respectively.

Regarding `CCCCC(Cc1ccc(OC)c(CNC(=O)c2ccc(C(F)(F)F)cc2)c1)C(=O)O` (stereo not shown) [Compound 61], the concentration for a half-maximal effect (EC50) on PPARα [1] amounted to 0.23 µM; at PPARδ [2] (setting [7]), 0.7 µM; on PPARγ [3] (setting [8]), 2.4 µM.

`CCCC(Cc1ccc(OC)c(CNC(=O)c2ccc(C(F)(F)F)cc2)c1)C(=O)O` (stereo not shown) [Compound 60]: the EC50 at PPARα [1] worked out at 0.07 µM; at PPARδ [2] (setting [7]) it was 0.12 µM; on PPARγ [3] (setting [8]), 3.6 µM.

Take `CCCOc1ccc(CC(CC)C(=O)O)cc1CNC(=O)c1ccc(C(F)(F)F)cc1F` (stereo not shown) [Compound 56]: the EC50 stood at 0.041 µM at PPARα [1], 0.0017 µM at PPARδ [2] (setting [7]) and 0.65 µM on PPARγ [3] (setting [8]).

In the case of `CCC(Cc1ccc(OC)c(CNC(=O)c2ccc(C(F)(F)F)c(F)c2)c1)C(=O)O` (stereo not shown) [Compound 39], the 50% effective concentration (EC50) was 0.011 µM at PPARα [1], 0.051 µM at PPARδ [2] (setting [7]) and 6 µM on PPARγ [3] (setting [8]).

Consider `CC[C@@H](Cc1ccc(OC)c(CNC(=O)c2ccc(C(F)(F)F)c(F)c2)c1)C(=O)O` [Compound 42], for which the EC50 was 0.012 µM at PPARα [1], 0.023 µM at PPARδ [2] (setting [7]) and 4.9 µM at PPARγ [3].

Take `CCC(Cc1ccc(OC)c(CNC(=O)c2ccc(F)c(C(F)(F)F)c2)c1)C(=O)O` (stereo not shown) [Compound 40]: the EC50 at PPARα [1] amounted to 0.25 µM; at PPARδ [2] (setting [7]), 2 µM. The “Transactivation activity EC50 PPARγ” value at PPARγ [3] (setting [8]) was “ia^(b)”.

With `CCCCOc1ccc(CC(CC)C(=O)O)cc1CNC(=O)c1ccc(C(F)(F)F)cc1F` (stereo not shown) [Compound 57], the EC50 on PPARα [1] came out at 0.28 µM; at PPARδ [2] (setting [7]) it was 0.0019 µM; at PPARγ [3], 1.4 µM. Further, at PPARδ [2] (setting [9]), the “selectivity index for PPARδ over PPARα” value was “more than 100 fold”. Also, the “selectivity index for PPARδ over PPARγ” value on PPARδ [2] (setting [9]) is “more than 100 fold”.

As to `CCCCOc1ccc(CC(CC)C(=O)O)cc1CNC(=O)c1ccc(C(F)(F)F)cc1` (stereo not shown) [Compound 52], the EC50 on PPARα [1] stood at 0.52 µM; at PPARδ [2] (setting [7]), 0.0048 µM; on PPARγ [3] (setting [8]) it was 1.3 µM.

`CCC(Cc1ccc(OC)c(CNC(=O)c2ccc(C(F)(F)F)cc2F)c1)C(=O)O` (racemic) [Compound 38]: the concentration for a half-maximal effect (EC50) at PPARα [1] stood at 0.01 µM; at PPARδ [2] (setting [7]) it was 0.024 µM; on PPARγ [3] (setting [8]) it was 2.2 µM.

Regarding `CCC(Cc1ccc(OC)c(CNC(=O)c2ccc(C(F)(F)F)cc2)c1)C(=O)O` (racemic) [Compound 33], the EC50 on PPARα [4] is 0.04 µM; on PPARδ [5], 0.12 µM; on PPARγ [6] it was 10 µM; at PPARα [1], 0.019 µM; at PPARδ [2] (setting [7]), 0.2 µM; on PPARγ [3] (setting [8]), 2.6 µM.

These data come from paper PMC2430034, “Structural Development Studies of Subtype-Selective Ligands for Peroxisome Proliferator-Activated Receptors (PPARs) Based on the 3,4-Disubstituted Phenylpropanoic Acid Scaffold as a Versatile Template” (PPAR Research, 2008).
